Where “and” joins values, the source holds several entries; their conditions need not be identical. Identical values can stand only once.
Assays:
[1] = Pharmacokinetics in mice; assay type: in vivo, mouse; settings: mice
Protocol: Wildtype or non-transgenic (NTg) C57Bl6 mice or Sprague-Dawley rats were dosed by oral (gavage) or subcutaneous (SQ) injection at 10 or 30 mg/kg, and animals were euthanized 1, 2, 6, and 8 h after administration by ketamine/xylazine over-anesthesia, in rats, CSF was also collected, followed by transcardial collection of blood for isolation of plasma and saline perfusion. Brain tissue was collected post-mortem for assessment of compound levels and biomarkers.
Analyses of compound levels in PK studies were performed in the UCLA Pasarow Mass Spectrometry Lab (PMSL; Julian Whitelegge, Ph.D., Director). Tissues were homogenized in a bead beater using 5 vol of ice-cold 80 % acetonitrile (1/5; mg of brain/μL of 80 % ACN). Plasma analytes were extracted using 4 vol of ice-cold acetonitrile (1/4; μL of plasma/μL of 100 % ACN). Solutions were clarified by centrifugation (16,000×g, 5 min) and the supernatants were transferred to new tubes and lyophilized. Samples were reconstituted in 100 μL of 50/50/0.1 (Water/Acetonitrile/Formic Acid) prior to analysis via liquid chromatography-tandem mass spectrometry (LC-MS/MS).
An internal standard (IS) was added to every sample to account for compound loss during sample processing. Standards were made in drug naïve plasma and tissue lysates with increasing amounts of analyte (S1, S2: 0 pmol/S3, S4: 1 pmol/S5, S6: 10 pmol/S7, S8: 100 pmol, S9, S10: 1000 pmol). The standard curve was made by plotting the known amount of analyte per standard vs. the ratio of measured chromatographic peak areas corresponding to the analyte over that of the IS (analyte/IS). The trendline equation was then used to calculate the absolute concentrations of each compound in plasma and tissue.
The targeted LC-MS/MS assay was developed using the multiple reaction monitoring (MRM) acquisition method on a 6460 triple quadrupole mass spectrometer (Agilent Technologies) coupled to a 1290 Infinity HPLC system (Agilent Technologies) with a Phenomenex analytical column (Kinetex 1.7 μm C18 100 Å 100 × 2.1 mm). The HPLC method utilized a mixture of solvent A (99.9/0.1 Water/Formic Acid) and solvent B (99.9/0.1 Acetonitrile/Formic Acid) and a gradient was use for the elution of the compounds (min/%B: 0/1, 3/1, 19/99, 20/1, 30/1). Two fragment ions were monitored at specific LC retention times to ensure specificity and accurate quantification in the complex biological samples. The normalized chromatographic peak areas were determined by taking the ratio of measured chromatographic peak areas corresponding to the compound over that of the internal standard (Analyte/IS).
The Tmax, Cmax, brain-to-plasma ratios and brain levels were then calculated using PK Solutions software (SummitPK).

[2] = molecular target: T1, cathepsin D (CatD) (Homo sapiens, UniProt P07339); experiment: Cathepsin D activity assay; assay type: biochemical
T1 construct: purchased R&D Systems 1014-AS
T1 sequence (P07339 65-412): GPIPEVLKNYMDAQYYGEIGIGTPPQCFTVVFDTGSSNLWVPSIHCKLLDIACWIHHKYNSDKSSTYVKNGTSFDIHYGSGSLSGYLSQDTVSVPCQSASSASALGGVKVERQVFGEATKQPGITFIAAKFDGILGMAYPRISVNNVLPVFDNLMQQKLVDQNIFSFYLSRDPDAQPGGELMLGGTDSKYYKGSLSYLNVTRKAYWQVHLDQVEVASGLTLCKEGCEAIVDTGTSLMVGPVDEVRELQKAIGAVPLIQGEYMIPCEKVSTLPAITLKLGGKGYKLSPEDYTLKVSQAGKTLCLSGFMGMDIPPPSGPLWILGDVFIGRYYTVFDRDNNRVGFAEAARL
Protocol: The effects of candidate ASBIs on cathepsin D (CatD) activity was assessed using the R&D Systems CatD activity assay kit (Catalog #: 1014-AS and ES001) according to the manufacturer's instructions. For the assay, 4 μL of assay buffer was added to each well, followed by 2 μL of CatD diluted in assay buffer to 5 ng/uL. Then, 2 μL of inhibitor, at concentrations along an 11 pt. two-fold dilution series starting at 50 μM, were added to appropriated wells and incubated for 30 min at room temperature. For all dilutions of inhibitor, drug stock solutions of 10 mM in DMSO were diluted to 50 μM in water; subsequent dilutions were in 2.5 % DMSO. Afterwards, 2 μL of fluorogenic CatD substrate, diluted to 50 μM in assay buffer, were added to each well, after which the signal generated was read every 30 min at 25 °C for 1hr.

[3] = molecular target: T2, BACE1 cleavage of PSGL1 (Homo sapiens, UniProt P56817); experiment: PSGL1 assay (SEAP-PSGL1); assay type: cell-based; settings: SEAP-PSGL1, HEK293
T2 construct: with or without full-length wild-type BACE1; expressed in transfected cells; host or cells: HEK293
T2 sequence (P56817 46-501): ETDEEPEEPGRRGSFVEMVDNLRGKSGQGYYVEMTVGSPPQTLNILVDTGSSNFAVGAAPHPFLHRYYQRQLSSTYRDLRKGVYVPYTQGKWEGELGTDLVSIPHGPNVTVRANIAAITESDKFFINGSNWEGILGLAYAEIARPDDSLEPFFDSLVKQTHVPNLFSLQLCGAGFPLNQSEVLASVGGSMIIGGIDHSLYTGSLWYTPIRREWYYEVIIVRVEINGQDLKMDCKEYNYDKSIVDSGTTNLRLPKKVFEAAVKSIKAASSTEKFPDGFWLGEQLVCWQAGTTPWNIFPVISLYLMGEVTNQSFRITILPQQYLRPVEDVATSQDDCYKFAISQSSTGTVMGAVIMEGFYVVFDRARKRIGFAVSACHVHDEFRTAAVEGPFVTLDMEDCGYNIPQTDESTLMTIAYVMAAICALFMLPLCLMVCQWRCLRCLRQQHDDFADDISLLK
Protocol: A cDNA construct encoding a human placental secreted alkaline phosphatase (SEAP)-PSGL1 (pAPtag5-PSGL1-β1) fusion protein was transfected in human embryonic kidney (HEK293) cells in a 6-well format with or without full-length wild-type BACE1 using Lipofectamine 2000 (Invitrogen). After 6–8 ​h transfection, the medium was replaced with DMEM containing the test compound at 10, 5, 1, 0.1 and 0.01 ​μM and 10 ​% heat-inactivated fetal bovine serum (FBS), and incubated for 24 ​h. SEAP activity was measured in the conditioned medium.

[4] = molecular target: BACE1 (Homo sapiens, UniProt P56817); experiment: P5-P5′ BACE1 inhibition assay; assay type: biochemical; settings: cell-free; read-out: BACE1 IC50 (P5-P5′ assay; BACE1-APP)
Chain of BACE1 (P56817 46-501): as above
Protocol: For the P5-P5′ BACE1 inhibition assay, 4 ​μL of assay buffer was added to each well, followed by 2 ​μL of BACE1 diluted in assay buffer to 7.5 ​ng/μL. Then, 2 ​μL of inhibitor, at concentrations along an 11 ​pt. two-fold dilution series starting at 10 ​μM, or 0.5 ​μM, were added to appropriate wells and incubated for 30 ​min at room temperature. For all dilutions of inhibitor, drug stock solutions of 10 ​mM in DMSO were diluted to 50 ​μM in water; subsequent dilutions were in 0.5 ​% DMSO. Afterwards, 2 ​μL of fluorogenic P5-P5′ BACE1 substrate, diluted to 50 ​μM in assay buffer, were added to each well and the signal generated was read every 30 ​min at 25 ​°C for 2 ​h.

[5] = test system: CHO-7W cells expressing wildtype human APP; experiment: sAPPβ and Aβ1-42 production in CHO-7W cells (AlphaLISA); assay type: cell-based, Chinese hamster
Protocol: Culture Media was collected and frozen. Media was assayed using an AlphaLISA for Aβ1-42 (Perkin Elmer catalog # AL276C), sAPPα (R&D Systems catalog # AF1168 conjugated with Perkin Elmer acceptor beads catalog # 6772001 + 2B3 antibody from IBL catalog # 11088 biotinylated), and sAPPβ (Perkin Elmer AL276-acceptor + IBL catalog # 18957 biotinylated). For the assay, 2 μL of diluted or undiluted sample was added to a 384 well plate, followed by 2 μL of the respective antibody mixture. This was incubated for 1 h. Afterwards, 2 μL of donor beads was added to each well, followed by a 30-min incubation in the dark, after which the signal was read.

[6] = Liver microsome stability assay; assay type: in vitro ADME; settings: human, human liver microsomes, pH 7.4, human liver microsomes; read-out: Microsomal stability T1/2
Protocol: Liver microsome stability assay
A 1 µL sample of 1 mM FAH65 and its enantiomers in 100% DMSO was added to 1 mL of 0.5 mg/mL human liver microsomes (Thermo Fisher Scientific, Cat# HMMPL) in PBS pH 7.4, 2 mM NADPH, and 2 mM MgCl2; and incubated at 37 °C for 120 min. Aliquots (50 µL) of the microsome solution were taken […]
quenching solution containing an internal standard. Solutions were clarified by centrifugation (16K x g, 5 min) and supernatants transferred to new tubes and lyophilized. Samples were reconstituted in 100 µL of 50/50/0.1 water/acetonitrile/formic acid prior to analysis via LC-MS/MS.
Normalized chromatographic peak areas were plotted at each time point and the half-life (t1/2) of compound in liver microsomes was determined by using the trendline equation to calculate the time at which compound abundance was 50% of that at timepoint 0 (T0).
One µL FAH65 and its enantiomers (1 mM in 100% DMSO) was added to human peripheral blood plasma (Cat#70039, Stemcell Technologies Inc) diluted 2-fold in PBS (1000 µL, pH 7.4) and incubated […]
and 180 min, and added to a 200 µL 100% acetonitrile reaction quenching solution containing an internal standard. Solutions were clarified by centrifugation (16K x g, 5 min) and supernatants were transferred to new tubes and lyophilized. […]

Cmax ([1]; C57Bl6, mouse, plasma, oral, 30 mg/kg): ~50 ng/mL
brain Cmax ([1]; oral, 30 mg/kg): 74 ng/g
time of brain Cmax ([1]; oral, 30 mg/kg): 1 h
compound levels in plasma ([1]; subcutaneous (SQ), 10 or 30 mg/kg): over 3000 ng/mL
inhibition of cathepsin D activity ([2]; in words): Neither analog significantly inhibited
IC50 ([2]; read-out: Cat D IC50): ~47000 nM
EC50 [3]: > 10000 nM
IC50 [4]: 7 nM and 10 to 30 nM and 10 nM and ~10 nM
half-life at 1 µM [6]: 38 min
Compound: Cc1cc(C2(c3cccc(-c4cncnc4)c3)N=C(N)N(C)C2=O)ccc1OC(F)F (stereo not drawn) [FAH65]
sAPPβ reduction [5]: > 90%
sAPPβ production ([5]; 1 μM, 24-h treatment, in words): decrease
Aβ1-42 production ([5]; 1 μM, in words): decrease

From PMC12491701, “Discovery of an APP-selective BACE1 inhibitor for Alzheimer's disease” (Neurotherapeutics, 2025)
